The results in this text go back to patent publication US6060241A (priority 1997, dated 2000).

In test [1] the target is T1, Hp 3-oxoacid CoA-transferase (Helicobacter pylori, UniProt P56006+P56007).
T1 construct: second column endogenous enzyme in H. pylori lysate
The test can be described thus: 3-oxoacid CoA transferase activity reconstituted in E. coli, in the presence of inhibitors. Type of test: biochemical. The note with it: for Specific activity (mU/mg ± SD), 3-oxoacid CoA transferase, E. coli transformed with pCOA-t: substances (50 nM), lysate of E. coli transformed with pCoA-t, none = 2255 ± 7; for inhibition of Hp CoA-transferase (in words): statement that refers to Example 11. How it is done: For 3-oxoadipate-CoA and 3-oxoacid CoA-transferase assays (FIGS. 7A, 7B, and 7C), E. coli cells transformed with pCoAT, which contains A^73 TGAA-TATAG^1394 of SEQ ID NO.:1 or with pUrea a plasmid containing the gene for urease (Labigne et al., J. Bacteriol. 173:1920-1931 (1991)) as a negative control, were washed once with M9 salts minimal medium (Molecular Cloning, a laboratory manual, Sambrook, Fritsch and Maniatis, second edition), pellets were stored at -20° C. until just prior to disruption. Thawed cell pellets were resuspended in 1 ml 50 mM phosphate buffer (pH 6.8), 1 mM dithiothreitol (Merck). Cell suspensions were disrupted by sonication and cellular debris removed by centrifugation. For butyrate-acetoacetate-CoA-transferase assays, the buffer used for cell wash and pellets resuspension was: 50 mM MOPS (pH 7.0), 0.5 M (NH4)2SO4, 20% (v/v) glycerol, 1 mM EDTA. Protein concentration in cellular extracts was determined by Bradford's method (1976) using γ globulin as standard (Bio-Rad) and activity expressed in U/mg of protein.
(§1) Activity was measured by monitoring the increase in A310 corresponding to the formation of acetoacetyl-CoA, as previously described (Howard et al., 1986). The assay contained 67 mM acetoacetate (Aldrich), 300 μM succinyl-CoA and 15 mM MgCl2 in 50 mM Tris-HCl pH 9.1. Under the experiment conditions, ε=7,800 M^-1 cm^-1.
(§2) The activity assay was performed as described in Example 8 in the presence of the indicated inhibitors. The results are presented below in Table 6

In test [2] the target is T1, Hp 3-oxoacid CoA-transferase. The test can be described thus: 3-oxoacid CoA transferase activity endogenous in H. pylori lysates, in the presence of inhibitors. Type of test: biochemical. The settings on record: substances (50 nM); endogenous enzyme in H. pylori lysate; none = 25 ± 1. How it is done: as §1
(§3) The activity assay was performed as described in Example 8, using H. pylori cell lysates.
as §2

For test [3], the target named is mammalian CoA-transferase (Homo sapiens, UniProt P55809). The test can be described thus: Effect on the mammalian CoA-transferase. The settings on record: statement that refers to Example 11; no mammalian data printed.
Test [4] deals with T2, acetoacetyl CoA thiolase (Helicobacter pylori, UniProt O25399).
T2 construct: mouse-adapted P49 used for mutants
Nature of the test: biochemical. Type of test: biochemical. The method, then: as §1, §3
The only CoA-transferase activity detected in H. pylori lysates was the one leading to the formation of acetoacetyl CoA from succinyl CoA and acetoacetate in the presence of Mg^2+.

Test [5] addresses 3 oxo acid CoA-transferase (Helicobacter pylori, UniProt P56006+P56007). Nature of the test: Reverse reaction of CoA-transferase, disappearance of acetoacetyl CoA at 310 nm. Type of test: biochemical. The note with it: Hp 69A + 2 mM iodoacetamide; Hp 69A alone = 227 ± 4. The source says:
As described above, CoA-transferase also catalyzes the reverse reaction, acetoacetyl CoA+succinate→acetoacetate+succinyl CoA. This additional 3-oxoacid CoA-transferase activity is examined in transformed E. coli and H. pylori by measuring the disappearance of acetoacetyl CoA at 310 nm.

T1 sequence (P56006 whole entry): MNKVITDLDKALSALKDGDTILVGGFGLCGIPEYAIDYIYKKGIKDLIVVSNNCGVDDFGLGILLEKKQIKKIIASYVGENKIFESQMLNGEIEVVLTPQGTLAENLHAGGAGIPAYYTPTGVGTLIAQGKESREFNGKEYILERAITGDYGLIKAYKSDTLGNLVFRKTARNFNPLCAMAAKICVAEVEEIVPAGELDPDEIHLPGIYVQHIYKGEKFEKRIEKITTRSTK
T1 sequence (P56007 whole entry): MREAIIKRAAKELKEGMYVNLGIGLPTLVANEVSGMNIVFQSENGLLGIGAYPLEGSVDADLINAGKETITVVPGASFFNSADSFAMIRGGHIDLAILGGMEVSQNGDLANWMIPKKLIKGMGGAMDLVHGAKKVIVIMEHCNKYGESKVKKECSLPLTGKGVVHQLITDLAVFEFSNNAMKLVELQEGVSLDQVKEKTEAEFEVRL
mammalian CoA-transferase, sequence (P55809 40-520): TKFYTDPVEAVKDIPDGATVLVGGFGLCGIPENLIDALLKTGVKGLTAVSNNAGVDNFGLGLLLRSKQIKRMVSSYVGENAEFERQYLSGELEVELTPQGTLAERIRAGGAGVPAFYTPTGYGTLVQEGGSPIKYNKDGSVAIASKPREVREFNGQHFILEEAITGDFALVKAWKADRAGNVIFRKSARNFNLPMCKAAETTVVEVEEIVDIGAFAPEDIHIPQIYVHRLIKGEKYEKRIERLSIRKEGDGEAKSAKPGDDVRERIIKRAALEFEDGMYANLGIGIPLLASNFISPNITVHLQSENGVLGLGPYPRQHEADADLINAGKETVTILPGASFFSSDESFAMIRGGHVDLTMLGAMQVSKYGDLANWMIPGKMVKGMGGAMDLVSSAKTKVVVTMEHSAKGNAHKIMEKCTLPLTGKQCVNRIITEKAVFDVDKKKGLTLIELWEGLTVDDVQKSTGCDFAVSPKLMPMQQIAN
T2 sequence (O25399 entry or part of it): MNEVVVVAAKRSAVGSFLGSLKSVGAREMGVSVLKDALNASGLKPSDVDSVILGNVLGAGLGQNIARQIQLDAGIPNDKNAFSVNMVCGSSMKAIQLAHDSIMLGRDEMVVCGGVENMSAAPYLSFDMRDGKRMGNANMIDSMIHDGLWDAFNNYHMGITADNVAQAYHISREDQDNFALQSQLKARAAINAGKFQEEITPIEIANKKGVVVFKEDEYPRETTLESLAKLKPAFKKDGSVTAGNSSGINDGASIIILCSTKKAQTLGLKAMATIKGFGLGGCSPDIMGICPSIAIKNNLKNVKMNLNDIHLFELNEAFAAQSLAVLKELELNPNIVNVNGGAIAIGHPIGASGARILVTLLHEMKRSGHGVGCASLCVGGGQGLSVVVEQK
3 oxo acid CoA-transferase, sequence (P56007 whole entry): as the sequence (P56007 whole entry) above
3 oxo acid CoA-transferase, sequence (P56006 whole entry): as the sequence (P56006 whole entry) above

`O=C(O)CC(=O)O` [disodium malonate]: in test [1], the “Specific activity (mU/mg ± SD), 3-oxoacid CoA transferase, E. coli transformed with pCOA-t” value (“Specific activity (mU/mg ± SD) … with pCOA-t” below) turned out to be 1823 ± 162 mU/mg. The “Specific activity (mU/mg ± SD), 3-oxoacid CoA transferase, H pytori” value (“Specific activity (mU/mg ± SD) … H pytori” below) in test [2] worked out at 27 ± 4 mU/mg.
As for `CC(CC(=O)O)C(=O)O` (stereo not drawn) [methyl succinic acid], in test [1], the “inhibition of Hp CoA-transferase (in words)” value is listed as “inhibit Hp CoA-transferase” and the “Specific activity (mU/mg ± SD) … with pCOA-t” value is listed as 67 ± 51 mU/mg. Moreover, the “Specific activity (mU/mg ± SD) … H pytori” value in test [2] is listed as 0 ± 1 mU/mg. Further, the “inhibition of the mammalian homologue (in words)” value in test [3] is “not the mammalian homologue”.
Take `O=C(O)CC(O)C(=O)O` (stereo not drawn) [monosodium malate]: the “Specific activity (mU/mg ± SD) … with pCOA-t” value in test [1] was found to be 131 ± 0 mU/mg. In addition, the “Specific activity (mU/mg ± SD) … H pytori” value in test [2] stood at 22 ± 8 mU/mg.
Take `O=C(O)CCCC(=O)O` [glutaric acid]: the “Specific activity (mU/mg ± SD) … with pCOA-t” value in test [1] stood at 31 ± 7 mU/mg. Moreover, the “Specific activity (mU/mg ± SD) … H pytori” value in test [2] was determined as 16 ± 5 mU/mg.
`O=C(O)CC(S)C(=O)O` (stereo not drawn) [mercapto succinic acid]: in test [1], the “inhibition of Hp CoA-transferase (in words)” value is given as “inhibit Hp CoA-transferase” and the “Specific activity (mU/mg ± SD) … with pCOA-t” value is 16 ± 13 mU/mg. The “Specific activity (mU/mg ± SD) … H pytori” value in test [2] is 2 ± 2 mU/mg. The “inhibition of the mammalian homologue (in words)” value in test [3] was “not the mammalian homologue”.
As to `COC(=O)CCC(=O)O` [methyl succinic ester], the “Specific activity (mU/mg ± SD) … with pCOA-t” value in test [1] came out at 58 ± 49 mU/mg. Besides, the “Specific activity (mU/mg ± SD) … H pytori” value in test [2] worked out at 14 ± 3 mU/mg.
As for `NC(=O)CI` [iodoacetamide], in test [4] (2 mM iodoacetamide, H. pylori lysate, 25±2 mU/mg without iodoacetamide), the “CoA transferase specific activity” value amounted to 60±2 mU/mg. In addition, in test [4] (read-out: increase of CoA transferase specific activity), the fold induction at 2000 µM was 2.5. Also, the “Specific activity (mU/mg), reverse reaction” value in test [5] is 257 ± 0 mU/mg.
For `N[C@@H](CC(=O)O)C(=O)[O-].[Na+]` [monosodium aspartate], the “Specific activity (mU/mg ± SD) … with pCOA-t” value in test [1] is given as 1859 ± 151 mU/mg. Besides, the “Specific activity (mU/mg ± SD) … H pytori” value in test [2] was found to be 24 ± 1 mU/mg.
